pIC50: −log10 of the molar value. In brackets after ≈: the same amount, converted by molar mass. Like-named read-outs stand apart in the source and are kept apart here.
Tests used:
Ba/F3 cells KRAS G12D = test: Ba/F3 proliferation assay (KRAS G12D); format: cell-based; conditions: Mus musculus, BaF3, 72 h, AlamarBlue viability
Outline: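 Ba/F3 cells retrovirally transduced with KRAS G12 mutant, puromycin-selected, grown IL-3-independent; seeded in RPMI-1640 + 10% FCS without IL-3. Logarithmic compound dose series in duplicate, 72 h at 37° C., AlamarBlue fluorescence as % of DMSO control; IC50 from four-parameter non-linear regression.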

SK-CO-1 cells = test: SK-CO-1 CTG proliferation assay (120 h) (CRC, G12V); format: cell-based; conditions: Homo sapiens
Experimental: SK—CO-1 cells (ATCC HTB-39) are dispensed into black 384-well plates, flat and clear bottom (Greiner, PNr. 781091) at a density of 500 cells per well in 60 μl EMEM (Sigma M5650)+10% FCS (fetal calf serum, HyClone, SH30084.03). Cells are incubated overnight at 37° C. in a humidified tissue culture incubator at 5% CO2. Compounds (10 mM stock in DMSO) are added at logarithmic dose series using the ECHO acoustic liquid handler system (Beckman Coulter), normalizing for added DMSO and including DMSO controls. All compound treatments are performed in technical duplicates. For the TO time point measurement, untreated cells are analyzed at the time of compound addition. Plates are incubated for 120 h, and cell viability is measured using CellTiter-Glo luminescent cell viability reagent (Promega product code G7570). Viability (stated as percent of control) is defined as relative luminescence units RLU of each well divided by the RLU of cells in DMSO controls. IC50 values are determined from viability measurements by non-linear regression using a four-parameter model.
IC50 values of representative compounds according to the invention measured with these assays in the indicated cell lines are presented in Table 46.

[1] = Metabolic (microsomal) stability assay, human liver microsomes (HLM); format: in vitro ADME; conditions: 1 μM test compound, predicted clearance as percent of liver blood flow
[2] = Solubility measurement (DMSO solution precipitation method); format: physicochemical; conditions: aqueous buffer, kinetic from dmso stock
Outline: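 A 10 mM DMSO stock was diluted to 250 μM final in McIlvaine buffer at pH 4.5 or 6.8, then shaken 24 h at ambient temperature. After filtering off precipitate, filtrate concentration was quantified by LC-UV against a fully dissolved reference in acetonitrile/water (1:1).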

[3] = McIlvaine buffer pH 4.5, 24 h, read-out: solubility pH 4.5
[4] = McIlvaine buffer pH 6.8, 24 h, read-out: solubility pH 6.8

| Structure (SMILES) | pIC50 (Ba/F3 cells KRAS G12D) | pIC50 (SK-CO-1 cells) | HLM QH [1] [%] | solubility at 24 h [2, 3] [µg/mL] | solubility at 24 h [2, 4] [µg/mL] |
| --- | --- | --- | --- | --- | --- |
| C[C@H](Oc1nc(-c2onc3c2CCC[C@@]32CCCc3sc(N)c(C#N)c32)nc2c1n(C)c(=O)n2[C@@H]1CCCOC1)[C@@H]1CCCN1C [I-12] | 7.92 | 8.30 | <24 | > 155 | > 142 |
| C[C@H](Oc1nc(-c2onc3c2CCC[C@@]32CCCc3sc(N)c(C#N)c32)nc2c1[nH]c(=O)n2[C@@H]1CCOC1)[C@@H]1CCCN1C [I-8] | 6.97 | 7.72 | <24 | > 147 | > 139 |
| CO[C@@H]1C[C@@H]([C@H](C)Oc2nc(-c3onc4c3CCC[C@@]43CCCc4sc(N)c(C#N)c43)nc3c2n(C)c(=O)n3[C@@]23COC[C@@H]2C3)N(C)C1 [I-46] | 7.82 | 8.40 | 34 | > 150 | 67 (≈ 99.6 µM) |
| C[C@H](Oc1nc(-c2onc3c2CCC[C@@]32CCCc3sc(N)c(C#N)c32)nc2c1n(C)c(=O)n2[C@@H]1CCOC1)[C@@H]1[C@@H](F)CCN1C [I-5] | 7.17 | 7.33 | 65 | > 150 | 2 (≈ 3.08 µM) |
| CCn1c(=O)n([C@@H]2CCOC2)c2nc(-c3onc4c3CCC[C@@]43CCCc4sc(N)c(C#N)c43)nc(O[C@@H](C)[C@@H]3CCCN3C)c21 [I-21] | 7.68 | 8.30 | 45 | > 157 | > 144 |
| C[C@H](Oc1nc(-c2onc3c2CCC[C@@]32CCCc3sc(N)c(C#N)c32)nc2c1cnn2[C@@H]1CCOC1)[C@@H]1CCCN1C [I-43] | 7.31 | 7.25 | <24 | > 147 | 113 (≈ 188 µM) |
| C[C@H](Oc1nc(-c2noc3c2CCC[C@@]32CCCc3sc(N)c(C#N)c32)nc2c1n(C)c(=O)n2[C@H]1CO[C@@H](C)C1)[C@@H]1CCCN1C [II-5] | 8.70 | 9.00 | 36 | > 142 | 107 (≈ 166 µM) |
| CCn1c(=O)n([C@@H]2CCCOC2)c2nc(-c3onc4c3CCC[C@@]43CCCc4sc(N)c(C#N)c43)nc(O[C@@H](C)C34CCCN3CCC4)c21 [I-36] | 7.02 | 7.85 | 37 | 135 (≈ 197 µM) | 94 (≈ 137 µM) |
| CO[C@H]1CCN(C)[C@@H]1[C@H](C)Oc1nc(-c2onc3c2CCC[C@@]32CCCc3sc(N)c(C#N)c32)nc2c1n(C)c(=O)n2[C@@H]1CCCOC1 [I-6] | 8.05 | 8.15 | 73 | > 164 | < 1 |
| C[C@H](Oc1nc(-c2onc3c2CCC[C@@]32CCCc3sc(N)c(C#N)c32)nc2c1[nH]c(=O)n2[C@@H]1CCCOC1)[C@@H]1CCCN1C [I-13] | 6.85 | 7.32 | <24 | > 148 | > 131 |
| C[C@H](Oc1nc(-c2onc3c2CCC[C@@]32CCCc3sc(N)c(C#N)c32)nc2c1COC[C@]21CCOC1)[C@@H]1CCCN1C [I-54] | 8.40 | 8.52 | 31 | > 145 | > 142 |
| C[C@H](Oc1nc(-c2noc3c2CCC[C@@]32CCCc3sc(N)c(C#N)c32)nc2c1CCO[C@]21CCOC1)[C@@H]1CCCN1C [II-9b] | 8.10 | 8.05 | 33 | > 141 | > 137 |
| C[C@H](Oc1nc(-c2noc3c2CCC[C@@]32CCCc3sc(N)c(C#N)c32)nc2c1cnn2[C@@H]1CCOC1)[C@@H]1CCCN1C [II-4] | 7.80 | 8.00 | 40 | > 139 | 104 (≈ 173 µM) |
| Cc1nc2c(O[C@@H](C)[C@@H]3CCCN3C)nc(-c3onc4c3CCC[C@@]43CCCc4sc(N)c(C#N)c43)nc2n1[C@@H]1CCOC1 [I-39] | 7.62 | 7.85 | 57 | > 147 | > 137 |
| CO[C@H]1CCN(C)[C@@H]1[C@H](C)Oc1nc(-c2noc3c2CCC[C@@]32CCCc3sc(N)c(C#N)c32)nc2c1n(C)c(=O)n2[C@@H]1CCCOC1 [II-3] | 8.05 | 8.30 | 80 | > 151 | 11 (≈ 16.3 µM) |
| COCCn1c(=O)n([C@@H]2CCOC2)c2nc(-c3onc4c3CCC[C@@]43CCCc4sc(N)c(C#N)c43)nc(O[C@@H](C)[C@@H]3CCCN3C)c21 [I-1] | 7.44 | 8.10 | 65 | > 157 | > 155 |
| C[C@H](Oc1nc(-c2onc3c2CCC[C@@]32CCCc3sc(N)c(C#N)c32)nc2c1n(C)c(=O)n2C1CCOCC1)[C@@H]1CCCN1C [I-10] | 6.93 | 7.16 | 33 | > 151 | > 148 |
| CO[C@@H]1C[C@@H]([C@H](C)Oc2nc(-c3onc4c3CCC[C@@]43CCCc4sc(N)c(C#N)c43)nc3c2CN(C2COC2)C[C@]32CCOC2)N(C)C1 [I-58] | 7.66 | 8.05 | 52 | > 167 | 122 (≈ 177 µM) |
| C[C@H](Oc1nc(-c2onc3c2CCC[C@@]32CCCc3sc(N)c(C#N)c32)nc2c1n(C)c(=O)n2C12COC(C1)C2)[C@@H]1CCCN1C [I-15] | 7.29 | 7.44 | <24 | > 150 | > 153 |
| CO[C@H]1C[C@H](n2c(=O)n(C)c3c(O[C@@H](C)[C@@H]4CCCN4C)nc(-c4onc5c4CCC[C@@]54CCCc5sc(N)c(C#N)c54)nc32)C1 [I-16] | 6.31 | 6.61 | <24 | > 154 | > 138 |
| C[C@H](Oc1nc(-c2noc3c2CCC[C@@]32CCCc3sc(N)c(C#N)c32)nc2c1COC[C@@]21CCOC1)[C@@H]1CCCN1C [II-9a] | 7.23 | 7.00 | 29 | > 141 | > 138 |
| CCn1c(=O)n([C@@H]2CCCOC2)c2nc(-c3onc4c3CCC[C@@]43CCCc4sc(N)c(C#N)c43)nc(OC[C@@]34CCCN3C[C@H](F)C4)c21 [I-33] | 5.45 | 6.04 | 48 | > 163 | 8 (≈ 11.6 µM) |
| C[C@H](Oc1nc(-c2onc3c2CCC[C@@]32CCCc3sc(N)c(C#N)c32)nc2c1n(C)c(=O)n2[C@H]1CCOC1)[C@@H]1CCCN1C [I-9] | 7.34 | 7.12 | <24 | > 149 | > 144 |
| Cc1nn([C@@H]2CCOC2)c2nc(-c3onc4c3CCC[C@@]43CCCc4sc(N)c(C#N)c43)nc(O[C@@H](C)[C@@H]3CCCN3C)c12 [I-42] | 7.43 | 7.34 | 36 | > 145 | 112 (≈ 182 µM) |
| C[C@H](Oc1nc(-c2noc3c2CCC[C@@]32CCCc3sc(N)c(C#N)c32)nc2c1COC[C@]21CCOC1)[C@@H]1CCCN1C [II-8] | 8.40 | 9.00 | 46 | > 142 | > 143 |
| CO[C@@H]1C[C@@H]([C@H](C)Oc2nc(-c3onc4c3CCC[C@@]43CCCc4sc(N)c(C#N)c43)nc3c2n(C)c(=O)n3[C@@H]2CCOC2)N(C)C1 [I-3] | 7.85 | 8.40 | 42 | > 157 | 77 (≈ 117 µM) |
| C[C@H](Oc1nc(-c2onc3c2CCC[C@@]32CCCc3sc(N)c(C#N)c32)nc2c1n(C)c(=O)n2[C@@H]1CCOC1)[C@@H]1[C@H](F)CCN1C [I-4] | 6.84 | 7.11 | 49 | > 152 | 28 (≈ 43.2 µM) |
| CO[C@H]1CCN(C)[C@@H]1[C@H](C)Oc1nc(-c2noc3c2CCC[C@@]32CCCc3sc(N)c(C#N)c32)nc2c1CN(C1COC1)C[C@]21CCOC1 [II-13] | 8.15 | 8.52 | 66 | > 151 | 52 (≈ 75.6 µM) |
| C[C@H](Oc1nc(-c2onc3c2CCC[C@@]32CCCc3sc(N)c(C#N)c32)nc2c1ncn2[C@@H]1CCOC1)[C@@H]1CCCN1C [I-38] | 7.55 | 7.49 | 28 | > 144 | > 139 |

Reference: patent US20250019385A1, “SPIROCYCLIC ANNULATED 2-AMINO-3-CYANO THIOPHENES AND DERIVATIVES FOR THE TREATMENT OF CANCER” (Boehringer Ingelheim International GmbH, priority 2023, published 2025)
